Positions of bridges follow the written chain, without caps; N, C: chain ends. No end group written: not given here.
System: Human umbilical vein endothelial cells (HUVEC)
Experiment: Apoptosis of HUVEC by FACS analysis after 7AAD staining
Assay type: cell-based
Conditions: 5 to 30 μM, 24 to 96 h; FIG. 13
Protocol: Human umbilical vein endothelial cells were treated with Seq.
HUVEC cells were incubated for 24 to 96 h with 5 or 30 μM of peptide Seq. ID n 5, control peptide, or left untreated. Apoptosis was characterized by FACS analysis after 7AAD staining. A. Dose-response versus control peptide. B. Increasing incubation times with or without 10 μM peptides and staining with 7AAD and detection by FACS analysis.

GG*CRGDMFG*CGGLLFIHFRIGSRHSRIG (GGCRGDMFGCGGLLFIHFRIGSRHSRIG; disulfide 3-10) [SEQ ID N^o 5]
apoptosis of HUVEC (in words): apoptosis induction
